Results reported in US7041677B2, “Use of monochloroflosequinan in the treatment of sexual dysfunction” (R.T. Alamo Ventures I, LLC, priority 2002, dated 2006).

Biological target: T1, PDE6 (Bos taurus, UniProt P11541+P23439)
T1 construct: from tissue; host or cells: bovine retinal rod outer segments
T1 sequence (P11541 2-856 limits assumed): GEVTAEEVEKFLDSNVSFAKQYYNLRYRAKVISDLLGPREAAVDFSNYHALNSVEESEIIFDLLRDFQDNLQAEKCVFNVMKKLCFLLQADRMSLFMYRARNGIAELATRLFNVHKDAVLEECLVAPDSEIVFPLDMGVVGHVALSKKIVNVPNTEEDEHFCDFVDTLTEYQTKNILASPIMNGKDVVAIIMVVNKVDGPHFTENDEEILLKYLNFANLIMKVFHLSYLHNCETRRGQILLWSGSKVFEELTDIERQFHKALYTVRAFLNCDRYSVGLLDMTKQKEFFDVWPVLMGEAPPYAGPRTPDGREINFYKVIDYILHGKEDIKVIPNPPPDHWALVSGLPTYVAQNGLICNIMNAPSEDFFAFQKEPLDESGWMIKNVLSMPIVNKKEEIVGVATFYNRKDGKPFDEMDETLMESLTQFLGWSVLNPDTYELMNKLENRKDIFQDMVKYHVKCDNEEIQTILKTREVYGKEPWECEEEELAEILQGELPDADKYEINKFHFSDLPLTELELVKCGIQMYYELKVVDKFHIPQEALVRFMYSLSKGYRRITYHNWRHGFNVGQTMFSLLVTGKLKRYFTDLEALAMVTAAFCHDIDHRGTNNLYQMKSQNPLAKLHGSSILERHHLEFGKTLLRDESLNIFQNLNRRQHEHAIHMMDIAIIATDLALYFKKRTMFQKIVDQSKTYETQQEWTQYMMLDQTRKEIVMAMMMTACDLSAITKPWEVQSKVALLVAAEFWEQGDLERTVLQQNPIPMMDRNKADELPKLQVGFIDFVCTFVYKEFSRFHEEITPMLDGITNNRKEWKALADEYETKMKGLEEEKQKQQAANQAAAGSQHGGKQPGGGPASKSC
T1 sequence (P23439 2-850 limits assumed): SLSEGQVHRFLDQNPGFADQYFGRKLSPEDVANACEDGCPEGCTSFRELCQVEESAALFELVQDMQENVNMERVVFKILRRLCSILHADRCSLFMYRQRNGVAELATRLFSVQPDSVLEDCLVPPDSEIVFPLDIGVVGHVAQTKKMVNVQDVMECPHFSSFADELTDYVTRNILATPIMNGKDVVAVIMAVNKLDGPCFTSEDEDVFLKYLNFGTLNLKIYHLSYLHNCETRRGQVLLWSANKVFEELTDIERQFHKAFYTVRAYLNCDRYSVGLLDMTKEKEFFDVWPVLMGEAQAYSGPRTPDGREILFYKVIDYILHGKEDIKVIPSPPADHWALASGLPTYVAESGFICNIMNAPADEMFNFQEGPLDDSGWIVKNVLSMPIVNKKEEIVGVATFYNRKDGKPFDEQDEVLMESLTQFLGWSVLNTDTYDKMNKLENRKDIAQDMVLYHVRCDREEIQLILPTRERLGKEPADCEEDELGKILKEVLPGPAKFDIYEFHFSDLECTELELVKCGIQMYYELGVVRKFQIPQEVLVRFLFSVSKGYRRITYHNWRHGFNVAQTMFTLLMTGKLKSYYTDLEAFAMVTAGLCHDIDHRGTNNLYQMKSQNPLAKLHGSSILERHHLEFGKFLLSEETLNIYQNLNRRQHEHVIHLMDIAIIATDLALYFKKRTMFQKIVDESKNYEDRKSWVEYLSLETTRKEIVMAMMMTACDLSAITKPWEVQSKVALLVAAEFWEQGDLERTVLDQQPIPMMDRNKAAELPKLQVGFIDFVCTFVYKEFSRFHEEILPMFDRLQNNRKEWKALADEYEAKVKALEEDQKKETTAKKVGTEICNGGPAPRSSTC
Assay: PDE6 enzyme inhibition assay
Assay type: biochemical, bovine
Conditions: 200 μM, 25° C., 1% DMSO vehicle

Compound	inhibition of PDE6
Cn1cc([S@@+]([O-])CCl)c(=O)c2ccc(F)cc21 (single isomer, unassigned) [(−)-enantiomer of monochloroflosequinan]	greater than 50%
Cn1cc([S@+]([O-])CCl)c(=O)c2ccc(F)cc21 (single isomer, unassigned) [(+)-enantiomer of monochloroflosequinan]	greater than 50%
